# Measurements published in PubChem BioAssay (NCI).
#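 Each compound was tested at five concentrations against cells in 96-well plates for 48 hours. At the TGI there is no net growth.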
# Experiments:
# Assay in all cases: NCI tumour cell line growth inhibition, 48 h
# [1] = test system: OVCAR-3 ovarian
# [2] = test system: A498 renal
# [3] = test system: MDA-N
# [4] = test system: SN12C renal
# [5] = test system: 786-0 renal
# [6] = test system: NCI-H23 lung
# [7] = test system: HT29 colon
# [8] = test system: SF-295 CNS
# [9] = test system: UACC-257 melanoma
# [10] = test system: TK-10 renal
# [11] = test system: OVCAR-8 ovarian
# [12] = test system: BT-549 breast
# [13] = test system: NCI/ADR-RES ovarian
# [14] = test system: SNB-19 CNS
# [15] = test system: K-562 leukemia
# [16] = test system: OVCAR-5 ovarian
# [17] = test system: LOX IMVI melanoma
# [18] = test system: A549 NSCLC
# [19] = test system: HCC-2998 colon
# [20] = test system: MOLT-4 leukemia
# [21] = test system: SK-MEL-28 melanoma
# [22] = test system: SW-620 colon
# [23] = test system: DU-145 prostate
# [24] = test system: EKVX NSCLC
# [25] = test system: M14 melanoma
# [26] = test system: MDA-MB-435
# [27] = test system: HS 578T breast
# [28] = test system: HCT-15 colon
# [29] = test system: RXF 393 renal
# [30] = test system: SR leukemia
# [31] = test system: SF-268 CNS
# [32] = test system: SK-MEL-5 melanoma
# [33] = test system: MALME-3M melanoma
# [34] = test system: NCI-H460 lung
# [35] = test system: HL-60(TB) leukemia
# [36] = test system: HOP-62 NSCLC
# [37] = test system: OVCAR-4 ovarian
# [38] = test system: HOP-92 NSCLC
# [39] = test system: U251 CNS
# [40] = test system: UO-31 renal
# [41] = test system: PC-3 prostate
# [42] = test system: RPMI-8226 leukemia
# [43] = test system: IGROV1 ovarian
# [44] = test system: CCRF-CEM leukemia
# [45] = test system: ACHN renal
# [46] = test system: SNB-75 CNS
# [47] = test system: KM12 colon
# [48] = test system: SK-OV-3 ovarian
# [49] = test system: UACC-62 melanoma
# [50] = test system: MCF7 breast
# [51] = test system: NCI-H226 lung
# [52] = test system: CAKI-1 renal
# [53] = test system: SK-MEL-2 melanoma
# [54] = test system: NCI-H522 lung
# [55] = test system: MDA-MB-231 breast
# [56] = test system: T-47D breast
# [57] = test system: SF-539 CNS
# [58] = test system: HCT-116 colon
# [59] = test system: COLO 205 colon
smiles,measurement,setting,value
CN1CC[C@@]2(c3cccc(O)c3)CC(=O)/C(=C/c3ccc(Cl)c(Cl)c3)[C@H]1C2,TGI,[1],4.07 µM
same,TGI,[2],26.5 µM
same,TGI,[3],3.77 µM
same,TGI,[4],3.89 µM
same,TGI,[5],3.07 µM
same,TGI,[6],15.9 µM
same,TGI,[7],2.72 µM
same,TGI,[8],3.86 µM
same,TGI,[9],12.6 µM
same,TGI,[10],27 µM
same,TGI,[11],10.1 µM
same,TGI,[12],4.33 µM
same,TGI,[13],7.09 µM
same,TGI,[14],12.5 µM
same,TGI,[15],3.66 µM
same,TGI,[16],14.4 µM
same,TGI,[17],2.81 µM
same,TGI,[18],11.5 µM
same,TGI,[19],3.37 µM
same,TGI,[20],8.47 µM
same,TGI,[21],4.65 µM
same,TGI,[22],3.06 µM
same,TGI,[23],16.4 µM
same,TGI,[24],21 µM
same,TGI,[25],5.02 µM
same,TGI,[26],2.8 µM
same,TGI,[27],7.19 µM
same,TGI,[28],3.77 µM
same,TGI,[29],5.62 µM
same,TGI,[30],5.92 µM
same,TGI,[31],7.01 µM
same,TGI,[32],5.53 µM
same,TGI,[33],13.1 µM
same,TGI,[34],4.72 µM
same,TGI,[35],3.82 µM
same,TGI,[36],6.2 µM
same,TGI,[37],17.2 µM
same,TGI,[38],18.1 µM
same,TGI,[39],2.67 µM
same,TGI,[40],4.33 µM
same,TGI,[41],3.07 µM
same,TGI,[42],4.37 µM
same,TGI,[43],5.65 µM
same,TGI,[44],> 100 µM
same,TGI,[45],3.38 µM
same,TGI,[46],2.63 µM
C=CCNC(=S)NC=C(C(N)=O)C(N)=O,TGI,[1],> 100 µM
same,TGI,[2],89.2 µM
same,TGI,[3],> 100 µM
same,TGI,[47],> 100 µM
same,TGI,[4],> 100 µM
same,TGI,[5],> 100 µM
same,TGI,[6],> 100 µM
same,TGI,[7],> 100 µM
same,TGI,[48],> 100 µM
same,TGI,[8],> 100 µM
same,TGI,[9],> 100 µM
same,TGI,[11],> 100 µM
same,TGI,[49],> 100 µM
same,TGI,[13],> 100 µM
same,TGI,[14],> 100 µM
same,TGI,[50],> 100 µM
same,TGI,[15],> 100 µM
same,TGI,[16],> 100 µM
same,TGI,[17],> 100 µM
same,TGI,[18],> 100 µM
same,TGI,[19],> 100 µM
same,TGI,[20],> 100 µM
same,TGI,[21],> 100 µM
same,TGI,[51],> 100 µM
same,TGI,[52],> 100 µM
same,TGI,[53],> 100 µM
same,TGI,[22],> 100 µM
same,TGI,[54],> 100 µM
same,TGI,[23],> 100 µM
same,TGI,[24],> 100 µM
same,TGI,[25],> 100 µM
same,TGI,[55],> 100 µM
same,TGI,[26],> 100 µM
same,TGI,[27],> 100 µM
same,TGI,[28],> 100 µM
same,TGI,[29],> 100 µM
same,TGI,[56],> 100 µM
same,TGI,[30],> 100 µM
same,TGI,[31],> 100 µM
same,TGI,[32],> 100 µM
same,TGI,[33],> 100 µM
same,TGI,[34],> 100 µM
same,TGI,[35],> 100 µM
same,TGI,[57],> 100 µM
same,TGI,[36],> 100 µM
same,TGI,[37],> 100 µM
same,TGI,[39],> 100 µM
same,TGI,[58],> 100 µM
same,TGI,[40],> 100 µM
same,TGI,[41],> 100 µM
same,TGI,[42],> 100 µM
same,TGI,[43],> 100 µM
same,TGI,[44],> 100 µM
same,TGI,[45],> 100 µM
same,TGI,[59],> 100 µM
same,TGI,[46],> 100 µM
